Measured values taken from ChEMBL document CHEMBL5316264, “Identification of N- and C-3-Modified Laudanosoline Derivatives as Novel Influenza PAN Endonuclease Inhibitors” (J Med Chem, 2023).
Converted amounts (≈) assume the structure as drawn. The source made the active and inactive calls. The rule behind the calls is not given here.

How the values were obtained:
[1] = Half life in BALB/c nude mouse at 2 mg/kg, iv measured after 24 hrs by LC-MS/MS analysis; format: ADME, organism-based; conditions: in vivo
Influenza A virus [2] = assay: Antiviral activity against influenza A virus A/WSN/33 (H1N1) infected in MDCK cells assessed as effect on nucleoprotein viral protein expression at 20 uM pretreated with cells for 1 hr followed by viral infection; format: functional, organism-based
[3] = Aqueous solubility of compound; format: physicochemical
Influenza A virus [4] = assay: Antiviral activity against influenza A virus A/WSN/33 (H1N1) infected in MDCK cells assessed as reduction in PB2 mRNA level at 20 uM measured after 2 to 5 hrs after viral infection by RT-PCR analysis; format: functional, organism-based; conditions: time 2-5 hrs
Influenza A virus [5] = assay: Antiviral activity against influenza A virus A/WSN/33 (H1N1) infected in MDCK cells assessed as reduction in matrix protein 2 expression at 20 uM cells pre-infected with virus for 1 hr followed by compound addition; format: functional, organism-based
Influenza A virus [6] = assay: Antiviral activity against Influenza A A/WSN/33 (H1N1) infected in BALB/c mouse assessed as protection against body weight loss administered ip twice daily for 5 days starting from 1 hrs post infection and measured daily for 14 days; format: functional, organism-based; conditions: dose 7.5-30 mg/kg/day, time 5.0 day
[7] = Bioavailability in BALB/c nude mouse at 15 mg/kg, ip measured after 24 hrs by LC-MS/MS analysis; format: ADME, organism-based; conditions: in vivo
Influenza A virus [8] = assay: Antiviral activity against influenza A virus A/WSN/33 (H1N1) infected in MDCK cells assessed as reduction in nucleoprotein expression at 20 uM cells pre-infected with virus for 1 hr followed by compound addition; format: functional, organism-based
[9] = Tmax in BALB/c nude mouse at 10 mg/kg, po measured after 24 hrs by LC-MS/MS analysis; format: ADME, organism-based; conditions: in vivo
[10] = AUC (0 to t) in BALB/c nude mouse at 2 mg/kg, iv measured after 24 hrs by LC-MS/MS analysis; format: ADME, organism-based; parameters: time 24 hrs, dose 2 mg/kg, route iv; conditions: in vivo
[11] = Metabolic stability in mouse liver microsomes assessed as half life at 10 uM incubated for 5 mins in presence of NADPH by LC-MS/MS analysis; format: ADME, Microsome
[12] = AUC (0 to t) in BALB/c nude mouse at 15 mg/kg, ip measured after 24 hrs by LC-MS/MS analysis; format: ADME, organism-based; parameters: time 24 hrs, dose 15 mg/kg, route ip; conditions: in vivo
[13] = Cytotoxicity against MDCK cells incubated for 48 hrs by MTT assay; format: toxicity, cell-based, Canis lupus familiaris; conditions: dog
[14] = Metabolic stability in mouse plasma assessed as compound remaining measured after 120 mins by LC-MS/MS analysis; format: ADME, cell-free; conditions: read-out: Stability
Influenza A virus [15] = assay: Antiviral activity against influenza A virus A/WSN/33 (H1N1) infected in MDCK cells assessed as reduction in PB2 mRNA level at 20 uM measured upto 10 hrs after viral infection by RT-PCR analysis; format: functional, organism-based
in vitro = conditions: dog, MDCK cells
Influenza A virus [16] = assay: Antiviral activity against influenza A virus A/WSN/33 (H1N1) infected in MDCK cells assessed as effect on nucleoprotein expression at 20 uM pre-infected with virus for 30 mins followed by 1 hr incubation with cells; format: functional, organism-based; conditions: time 1.5 hrs
[17] = AUC (0 to t) in BALB/c nude mouse at 10 mg/kg, po measured after 24 hrs by LC-MS/MS analysis; format: ADME, organism-based; parameters: time 24 hrs, dose 10 mg/kg, route po; conditions: in vivo
Influenza A virus [18] = assay: Antiviral activity against influenza A virus A/WSN/33 (H1N1) infected in MDCK cells assessed as effect on matrix protein 2 expression at 20 uM pretreated with cells for 1 hr followed by viral infection; format: functional, organism-based
[19] = Oral bioavailability in BALB/c nude mouse at 10 mg/kg measured after 24 hrs by LC-MS/MS analysis; format: ADME, organism-based; conditions: in vivo
[20] = Half life in BALB/c nude mouse at 15 mg/kg, ip measured after 24 hrs by LC-MS/MS analysis; format: ADME, organism-based; conditions: in vivo
[21] = Tmax in BALB/c nude mouse at 15 mg/kg, ip measured after 24 hrs by LC-MS/MS analysis; format: ADME, organism-based; conditions: in vivo
Influenza A virus [22] = assay: Antiviral activity against Influenza A A/WSN/33 (H1N1) infected in BALB/c mouse assessed as survival ratio at 15 mg/kg/day, ip administered twice daily for 5 days starting from 1 hrs post infection and measured daily for 14 days relative to control; format: functional; conditions: time 14 day
[23] = Metabolic stability in mouse plasma assessed as compound remaining measured after 90 mins by LC-MS/MS analysis; format: ADME, cell-free; conditions: read-out: Stability
Influenza A virus [24] = assay: Antiviral activity against influenza A virus Flu (B/Lee/1940) infected in MDCK cells assessed as inhibition of cytopathic effect incubated for 48 hrs by MTT assay; format: functional, organism-based
Influenza A virus [25] = assay: Antiviral activity against influenza A virus H3N2(JX/312) infected in MDCK cells assessed as inhibition of cytopathic effect incubated for 48 hrs by MTT assay; format: functional, organism-based
[26] = Cmax in BALB/c nude mouse at 15 mg/kg, ip measured after 24 hrs by LC-MS/MS analysis; format: ADME, organism-based; parameters: time 24 hrs, dose 15 mg/kg, route ip; conditions: in vivo
Influenza A virus [27] = assay: Antiviral activity against Influenza A A/WSN/33 (H1N1) infected in BALB/c mouse at 30 mg/kg/day, ip administered twice daily for 5 days starting from 1 hrs post infection and measured daily for 14 days; format: functional, organism-based; conditions: time 5.0 day
Erythrocyte = assay: Inhibition of hemagglutination in chicken RBC cells infected with Influenza A virus A/WSN/33 (H1N1) assessed as reduction in virus-induced agglutination of erythrocytes at 0.31 to 81 uM pretreated with H5 antigen for 30 mins followed by addition of chicken erythrocytes measured after 1 hr; format: functional, cell-based; conditions: Gallus gallus, dose 0.31-81 µM, time 1.5 hrs
[28] = Half life in BALB/c nude mouse at 10 mg/kg, po measured after 24 hrs by LC-MS/MS analysis; format: ADME, organism-based; conditions: in vivo
Influenza A virus [29] = assay: Antiviral activity against influenza A virus A/WSN/33 (H1N1) infected in MDCK cells assessed as effect on matrix protein 2 expression at 20 uM pre-infected with virus for 30 mins followed by 1 hr incubation with cells; format: functional, organism-based; conditions: time 1.5 hrs
[30] = Cmax in BALB/c nude mouse at 2 mg/kg, iv measured after 24 hrs by LC-MS/MS analysis; format: ADME, organism-based; parameters: time 24 hrs, dose 2 mg/kg, route iv; conditions: in vivo
Influenza A virus [31] = assay: Antiviral activity against influenza A virus A/WSN/33 (H1N1) infected in MDCK cells assessed as inhibition of cRNA synthesis pre-infected with virus for 1 hr followed by compound addition and measured after 24 hrs post infection by RT-qPCR analysis; format: functional, organism-based; conditions: dose 2.5-10 µM
[32] = Distribution coefficient, logD of compound at pH 7.4; format: physicochemical; conditions: octanol/water
[33] = Solubility of the compound in FeSSIF; format: physicochemical
[34] = Metabolic stability in mouse liver microsomes assessed as intrinsic clearance at 10 uM incubated for 5 mins in presence of NADPH by LC-MS/MS analysis; format: ADME, Microsome; conditions: read-out: CLH
[35] = Cmax in BALB/c nude mouse at 10 mg/kg, po measured after 24 hrs by LC-MS/MS analysis; format: ADME, organism-based; parameters: dose 10 mg/kg, time 24 hrs, route po; conditions: in vivo
Influenza A virus [36] = assay: Antiviral activity against influenza A virus A/WSN/33 (H1N1) infected in MDCK cells assessed as increase in inhibition of luciferase activity pre-infected with virus for 1 hr followed by compound addition and measured after 24 hrs post infection; format: functional, organism-based; conditions: dose <= 6.0 nM
[37] = Metabolic stability in mouse liver S9 fraction assessed as half life at 10 uM incubated for 5 mins in presence of NADPH and UDPGA by LC-MS/MS analysis; format: ADME, subcellular
Influenza A virus [38] = assay: Antiviral activity against influenza A virus A/WSN/33 (H1N1) infected in MDCK cells assessed as reduction in PB2 mRNA level at 20 uM measured after 5 to 8 hrs after viral infection by RT-PCR analysis; format: functional, organism-based; conditions: time 5-8 hrs
[39] = Clearance in BALB/c nude mouse at 2 mg/kg, iv measured after 24 hrs by LC-MS/MS analysis; format: ADME, organism-based; conditions: in vivo
[40] = Solubility of the compound in FaSSIF; format: physicochemical
Influenza A virus [41] = assay: Antiviral activity against influenza A virus H5N1(A/Duck/Guangdong/212/2004) infected in MDCK cells assessed as inhibition of cytopathic effect incubated for 48 hrs by MTT assay; format: functional, organism-based
[42] = Metabolic stability in mouse plasma assessed as compound remaining measured after 60 mins by LC-MS/MS analysis; format: ADME, cell-free; conditions: read-out: Stability
[43] = Metabolic stability in mouse plasma assessed as compound remaining measured after 30 mins by LC-MS/MS analysis; format: ADME, cell-free; conditions: read-out: Stability
Influenza A virus [44] = assay: Antiviral activity against influenza A virus A/WSN/33 (H1N1) infected in MDCK cells assessed as reduction of ratio of pPOLI-Fluc to Renilla luciferase activity at 2.5 to 10 uM pre-infected with virus for 1 hr followed by compound addition and measured after 24 hrs post infection; format: functional, organism-based; conditions: dose 2.5-10 µM
[45] = Metabolic stability in mouse liver S9 fraction assessed as intrinsic clearance at 10 uM incubated for 5 mins in presence of NADPH and UDPGA by LC-MS/MS analysis; format: ADME, subcellular; conditions: read-out: CLH

CCCOC(=O)[C@@H]1Cc2cc(O)c(O)cc2[C@H](Cc2ccc(O)c(O)c2)N1C(=O)c1ccccc1Cl
half-life [1]: 19.8 min
Activity (Influenza A virus [2]): inactive
solubility [3]: 1.62 µM (≈ 0.829 µg/mL)
Activity (Influenza A virus [4]): Active
Activity (Influenza A virus [5]): Active
Activity (Influenza A virus [6]): Dose-Dependent Effect
bioavailability [7]: 29.5%
Activity (Influenza A virus [8]): Active
Tmax [9]: 31.2 min
AUC(0-t) at 24 h [10]: 536 ng·h/mL
half-life at 10 µM [11]: 9.2 min
AUC(0-t) at 24 h [12]: 791 ng·h/mL
CC50 at 48 h [13]: 99500 nM
remaining at 2 h [14]: 89.8%
Activity (Influenza A virus [15]): Active
selectivity ratio (in vitro): 113
Activity (Influenza A virus [16]): inactive
AUC(0-t) at 24 h [17]: 164 ng·h/mL
Activity (Influenza A virus [18]): inactive
bioavailability [19]: 6.13%
half-life [20]: 64.2 min
Tmax [21]: 27 min
Activity (Influenza A virus [22]): 60%
remaining at 1.5 h [23]: 91.5%
EC50 (Influenza A virus [24]): 430 nM
EC50 (Influenza A virus [25]): 760 nM
Cmax [26]: 890 ng/mL
Activity (Influenza A virus [27]): Active
inhibition (Erythrocyte): inactive
half-life [28]: 49.2 min
Activity (Influenza A virus [29]): inactive
Cmax [30]: 1590 ng/mL
Activity (Influenza A virus [31]): Dose-Dependent Effect
logD [32]: 3.25
solubility [33]: 75.3 µM (≈ 38.6 µg/mL)
microsomal CLint at 10 µM [34]: 134 µL/min/mg
Cmax [35]: 92.2 ng/mL
Activity (Influenza A virus [36]): Dose-Dependent Effect
half-life at 10 µM [37]: 103 min
Activity (Influenza A virus [38]): Active
clearance [39]: 53.8 mL/min/kg
solubility [40]: 78.2 µM (≈ 40 µg/mL)
EC50 (Influenza A virus [41]): 1120 nM
remaining at 1 h [42]: 95.6%
remaining at 0.5 h [43]: 100%
Activity (Influenza A virus [44]): Active
microsomal CLint at 10 µM [45]: 9.57 µL/min/mg
